# Source: PubChem BioAssay (NCI)
#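 Dose response: 5 concentrations. Exposure: 48 h. Format: 96-well plates. Endpoint: linear interpolation; highest concentration if not reached. At the TGI there is no net growth.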
# Columns and labels:
# Assay in all cases: growth of human tumour cells (NCI), 48 h
# CCRF-CEM leukemia = system: CCRF-CEM leukemia
# HCC-2998 colon = system: HCC-2998 colon
# SF-539 CNS = system: SF-539 CNS
# IGROV1 ovarian = system: IGROV1 ovarian
# BT-549 breast = system: BT-549 breast
# SK-OV-3 ovarian = system: SK-OV-3 ovarian
# OVCAR-3 ovarian = system: OVCAR-3 ovarian
# 786-0 renal = system: 786-0 renal
# RXF 393 renal = system: RXF 393 renal
# M14 melanoma = system: M14 melanoma
# KM12 colon = system: KM12 colon
# SNB-75 CNS = system: SNB-75 CNS
# DU-145 prostate = system: DU-145 prostate
# HCT-116 colon = system: HCT-116 colon
# SW-620 colon = system: SW-620 colon
# EKVX NSCLC = system: EKVX NSCLC
# MOLT-4 leukemia = system: MOLT-4 leukemia
# HOP-62 NSCLC = system: HOP-62 NSCLC
# SK-MEL-2 melanoma = system: SK-MEL-2 melanoma
# HS 578T breast = system: HS 578T breast
# MDA-MB-231 breast = system: MDA-MB-231 breast
# COLO 205 colon = system: COLO 205 colon
# UO-31 renal = system: UO-31 renal
# OVCAR-5 ovarian = system: OVCAR-5 ovarian
# K-562 leukemia = system: K-562 leukemia
# HCT-15 colon = system: HCT-15 colon
# MDA-MB-435 = system: MDA-MB-435
# HL-60(TB) leukemia = system: HL-60(TB) leukemia
# MALME-3M melanoma = system: MALME-3M melanoma
# UACC-62 melanoma = system: UACC-62 melanoma
# PC-3 prostate = system: PC-3 prostate
# A549 NSCLC = system: A549 NSCLC
# TK-10 renal = system: TK-10 renal
# CAKI-1 renal = system: CAKI-1 renal
# SK-MEL-5 melanoma = system: SK-MEL-5 melanoma
# LOX IMVI melanoma = system: LOX IMVI melanoma
# UACC-257 melanoma = system: UACC-257 melanoma
# SF-268 CNS = system: SF-268 CNS
# NCI/ADR-RES ovarian = system: NCI/ADR-RES ovarian
# NCI-H23 lung = system: NCI-H23 lung
# SK-MEL-28 melanoma = system: SK-MEL-28 melanoma
# HT29 colon = system: HT29 colon
# RPMI-8226 leukemia = system: RPMI-8226 leukemia
# HOP-92 NSCLC = system: HOP-92 NSCLC
# NCI-H460 lung = system: NCI-H460 lung
# A498 renal = system: A498 renal
# U251 CNS = system: U251 CNS
# MDA-N = system: MDA-N
# SF-295 CNS = system: SF-295 CNS
# SN12C renal = system: SN12C renal
# T-47D breast = system: T-47D breast
# MCF7 breast = system: MCF7 breast
# SR leukemia = system: SR leukemia
# SNB-19 CNS = system: SNB-19 CNS
# NCI-H522 lung = system: NCI-H522 lung
# OVCAR-8 ovarian = system: OVCAR-8 ovarian
# ACHN renal = system: ACHN renal
# NCI-H226 lung = system: NCI-H226 lung
# OVCAR-4 ovarian = system: OVCAR-4 ovarian
structure (smiles),measurement,setting,value
COc1ccc2[nH]c(Cl)c(/C=C3/C(=O)N(c4ccccc4)c4ccccc43)c2c1,TGI,CCRF-CEM leukemia,63.4 µM
same,TGI,HCC-2998 colon,17.6 µM
same,TGI,SF-539 CNS,6.63 µM
same,TGI,IGROV1 ovarian,> 100 µM
same,TGI,BT-549 breast,11.3 µM
same,TGI,SK-OV-3 ovarian,10.8 µM
same,TGI,OVCAR-3 ovarian,7.71 µM
same,TGI,786-0 renal,20.9 µM
same,TGI,RXF 393 renal,47.3 µM
same,TGI,M14 melanoma,12.9 µM
same,TGI,KM12 colon,> 100 µM
same,TGI,SNB-75 CNS,49.1 µM
same,TGI,DU-145 prostate,76.4 µM
same,TGI,HCT-116 colon,18.6 µM
same,TGI,SW-620 colon,24.6 µM
same,TGI,EKVX NSCLC,69.5 µM
same,TGI,MOLT-4 leukemia,> 100 µM
same,TGI,HOP-62 NSCLC,23.4 µM
same,TGI,SK-MEL-2 melanoma,10.9 µM
same,TGI,HS 578T breast,39.6 µM
same,TGI,MDA-MB-231 breast,65.3 µM
same,TGI,COLO 205 colon,5.89 µM
same,TGI,UO-31 renal,93.1 µM
same,TGI,OVCAR-5 ovarian,94.8 µM
same,TGI,K-562 leukemia,26.4 µM
same,TGI,HCT-15 colon,13 µM
same,TGI,MDA-MB-435,4.33 µM
same,TGI,HL-60(TB) leukemia,9.02 µM
same,TGI,MALME-3M melanoma,36.2 µM
same,TGI,UACC-62 melanoma,43.4 µM
same,TGI,PC-3 prostate,> 100 µM
same,TGI,A549 NSCLC,> 100 µM
same,TGI,TK-10 renal,36.5 µM
same,TGI,CAKI-1 renal,> 100 µM
same,TGI,SK-MEL-5 melanoma,5.97 µM
same,TGI,LOX IMVI melanoma,14.3 µM
same,TGI,UACC-257 melanoma,24.3 µM
same,TGI,SF-268 CNS,23.3 µM
same,TGI,NCI/ADR-RES ovarian,6.45 µM
same,TGI,NCI-H23 lung,19.5 µM
same,TGI,SK-MEL-28 melanoma,52 µM
same,TGI,HT29 colon,45.8 µM
same,TGI,RPMI-8226 leukemia,20.4 µM
same,TGI,HOP-92 NSCLC,> 100 µM
same,TGI,NCI-H460 lung,16.3 µM
same,TGI,A498 renal,> 100 µM
same,TGI,U251 CNS,30.7 µM
same,TGI,MDA-N,3.53 µM
same,TGI,SF-295 CNS,7.33 µM
same,TGI,SN12C renal,18.9 µM
same,TGI,T-47D breast,21.4 µM
same,TGI,MCF7 breast,> 100 µM
same,TGI,SR leukemia,11.1 µM
same,TGI,SNB-19 CNS,88.5 µM
same,TGI,NCI-H522 lung,17.9 µM
same,TGI,OVCAR-8 ovarian,28.8 µM
same,TGI,ACHN renal,> 100 µM
O=C(O)c1c[nH]c2cc(OCc3ccccc3)ccc2c1=O,TGI,CCRF-CEM leukemia,53.2 µM
same,TGI,HCC-2998 colon,32.2 µM
same,TGI,SF-539 CNS,36.8 µM
same,TGI,IGROV1 ovarian,32.4 µM
same,TGI,BT-549 breast,32.5 µM
same,TGI,SK-OV-3 ovarian,36.6 µM
same,TGI,NCI-H226 lung,33.8 µM
same,TGI,OVCAR-3 ovarian,35.3 µM
same,TGI,786-0 renal,32.5 µM
same,TGI,RXF 393 renal,38.2 µM
same,TGI,M14 melanoma,31.8 µM
same,TGI,KM12 colon,33.8 µM
same,TGI,SNB-75 CNS,31.4 µM
same,TGI,DU-145 prostate,33.3 µM
same,TGI,HCT-116 colon,31 µM
same,TGI,SW-620 colon,40.5 µM
same,TGI,EKVX NSCLC,38.7 µM
same,TGI,MOLT-4 leukemia,84 µM
same,TGI,HOP-62 NSCLC,35.9 µM
same,TGI,SK-MEL-2 melanoma,33.3 µM
same,TGI,HS 578T breast,45.2 µM
same,TGI,MDA-MB-231 breast,48.6 µM
same,TGI,COLO 205 colon,34.8 µM
same,TGI,UO-31 renal,31.1 µM
same,TGI,OVCAR-5 ovarian,42.1 µM
same,TGI,K-562 leukemia,54.3 µM
same,TGI,HCT-15 colon,36.1 µM
same,TGI,MDA-MB-435,30 µM
same,TGI,HL-60(TB) leukemia,2.32 µM
same,TGI,MALME-3M melanoma,31.7 µM
same,TGI,UACC-62 melanoma,30.5 µM
same,TGI,PC-3 prostate,31.2 µM
same,TGI,A549 NSCLC,35.5 µM
same,TGI,TK-10 renal,39.6 µM
same,TGI,CAKI-1 renal,40.1 µM
same,TGI,SK-MEL-5 melanoma,32 µM
same,TGI,UACC-257 melanoma,50.7 µM
same,TGI,SF-268 CNS,29.4 µM
same,TGI,NCI/ADR-RES ovarian,37.8 µM
same,TGI,NCI-H23 lung,33.3 µM
same,TGI,SK-MEL-28 melanoma,30.1 µM
same,TGI,HT29 colon,33.3 µM
same,TGI,RPMI-8226 leukemia,64.9 µM
same,TGI,HOP-92 NSCLC,35.1 µM
same,TGI,OVCAR-4 ovarian,31.1 µM
same,TGI,NCI-H460 lung,34.5 µM
same,TGI,A498 renal,31.4 µM
same,TGI,U251 CNS,36.1 µM
same,TGI,MDA-N,30.9 µM
same,TGI,SF-295 CNS,34.4 µM
same,TGI,SN12C renal,32.2 µM
same,TGI,T-47D breast,38.8 µM
same,TGI,MCF7 breast,39.8 µM
same,TGI,SR leukemia,53.8 µM
same,TGI,SNB-19 CNS,32.4 µM
same,TGI,NCI-H522 lung,30.8 µM
same,TGI,OVCAR-8 ovarian,35.3 µM
same,TGI,ACHN renal,32.7 µM
